# Assay results from paper PMC7076710, “Synthesis, Identification, and Structure–Activity Relationship Analysis of GATA4 and NKX2-5 Protein–Protein Interaction Modulators” (Journal of Medicinal Chemistry, 2019).
# Where two headings read alike, the source gives them in different places.
# Tests used:
# Type in all cases: cell-based
# [1] = molecular target: T1, GATA4 transcriptional activity (Mus musculus, UniProt Q08369); assay: GATA4 luciferase reporter assay (tandem GATA-site reporter, COS-1 cells)
# T1 construct: expressed in transfected cells; host or cells: COS-1
# T1 sequence (Q08369 whole entry): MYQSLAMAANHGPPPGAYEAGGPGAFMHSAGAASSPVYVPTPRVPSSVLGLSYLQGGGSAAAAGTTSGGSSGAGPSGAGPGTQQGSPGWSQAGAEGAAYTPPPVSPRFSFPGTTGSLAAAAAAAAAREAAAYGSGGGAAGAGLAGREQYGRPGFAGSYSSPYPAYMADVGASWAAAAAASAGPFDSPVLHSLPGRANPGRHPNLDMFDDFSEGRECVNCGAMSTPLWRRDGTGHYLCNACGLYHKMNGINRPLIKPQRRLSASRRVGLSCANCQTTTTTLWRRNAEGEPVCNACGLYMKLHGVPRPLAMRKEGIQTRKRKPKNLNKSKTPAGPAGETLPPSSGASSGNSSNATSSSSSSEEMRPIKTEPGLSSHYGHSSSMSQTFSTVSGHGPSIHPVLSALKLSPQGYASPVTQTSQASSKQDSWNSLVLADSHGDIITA
# Experimental: (§1) To screen compounds for the GATA4–NKX2-5 interaction, we have developed a luciferase reporter assay based on their property to activate gene transcription synergistically through the NKX2-5 binding site on DNA.[28] In this assay, we transfected mammalian COS-1 cells with protein expression vectors for GATA4 and NKX2-5 proteins together with artificial luciferase reporter vector containing three high affinity binding sites for NKX2-5 (NKE). […] All 257 compounds were tested in two concentrations, 3 and 10 μM. Compounds either inhibited, enhanced, or had no effect on the GATA4–NKX2-5 transcriptional synergy. To investigate the selectivity of the active compounds, we tested their effects on NKX2-5 transcriptional activity by using the same luciferase reporter vector as in transcriptional synergy assay with three NKE sites (Figure 3B). Furthermore, we used GATA luciferase reporter assay to examine if compounds have an effect on GATA4 transcriptional activity. In this assay, we cotransfected the cells with a GATA4 protein expression vector and a reporter vector with tandem GATA4 binding sites (Figure 3C). Previously we have reported that compound 1 inhibited the GATA4–NKX2-5 transcriptional synergy at micromolar concentrations (IC50 = 3 μM).[29]
# (§2) The plasmids expressing mouse GATA4 protein, pMT2-GATA4, and empty pMT2 were gifts from D. B. Wilson (Department of Pediatrics, St. Louis Children’s Hospital, St. Louis, MO).[44] The plasmids expressing mouse NKX2-5 protein, pMT2-NKX2-5, have been described earlier.[28] The luciferase reporter plasmid used in GATA4–NKX2-5 transcriptional synergy assay and NKX transcriptional assay, pGL3-3xHA, contains three high affinity binding sites for NKX2-5.[28] The luciferase reporter plasmid used in GATA transcriptional assay, NP-112, contains tandem GATA-sites and minimal promoter of rat brain natriuretic peptide (BNP) gene.[45] The pGL3-BNP luciferase reporter containing −534/+4 bp rat BNP proximal promoter described previously was used in hypertrophy assay.[46]
# (§3) The primary screening assay of compounds’ effect on GATA4–NKX2-5 transcriptional synergy and COS-1 cell culturing has been described earlier.[33] […] (Kinnunen et al., unpublished observation). Briefly, COS-1 cells were seeded at 14 000 cells/well in Isoplate-96 microplates (PerkinElmer, Turku, Finland) and grown overnight. The cells were transfected with the luciferase reporter plasmid pGL3-3xHA 100 ng/well and equal amounts of expression plasmids pMT2-GATA4 and pMT2-NKX2-5 total 50 ng/well. To verify the synergistic effect, the cells were transfected with pMT2-GATA4 or pMT2-NKX2-5 25 ng/well, and the total DNA concentration was adjusted to 50 ng/well with empty pMT2 plasmid. In NKX2-5 and GATA4 luciferase reporter assays, the cells were transfected with reporter plasmid pGL3-3xHA or NP-112 (100 ng/well) and expression plasmid pMT2-NKX2-5 or pMT2-GATA4 (25 ng/well). The ratio of DNA/transfection reagent (Fugene 6, Promega) was 1:3 in all assays. The transfections were performed in serum and antibiotics free media for 6 h. The cells were treated with compounds or vehicle (0.1% DMSO) for 24 h, and the luminescence was measured using neolite Reporter Gene Assay System (PerkinElmer, Turku, Finland) and Victor2 plate reader (PerkinElmer, Turku, Finland).
# (§4) Raw luciferase data were analyzed in Excel, and clear outliers were removed from triplicates by using the Grubb’s test. Data analysis was performed using R.[49] The luciferase data were first normalized on the basis of the combined mean value of controls. For data visualization and creation of figures, the following R packages were used: ggplot2, cowplot, RColorBrewer, and pheatmap. The heatmaps of the toxicity data were produced with GraphPad Prism 7.00 (GraphPad Software, La Jolla, CA). Statistical significance of luciferase reporter assay data was evaluated by randomized block analysis of variance followed by Dunnett’s post hoc test. […]
# [2] = molecular target: T2, NKX2-5 transcriptional activity (Mus musculus, UniProt P42582); assay: NKX2-5 luciferase reporter assay (3xNKE reporter, COS-1 cells); settings: for activity at 3 µM: read-out: NKX.3µM; for activity at 10 µM: read-out: NKX.10µM
# T2 construct: expressed in transfected cells; host or cells: COS-1
# T2 sequence (P42582 whole entry): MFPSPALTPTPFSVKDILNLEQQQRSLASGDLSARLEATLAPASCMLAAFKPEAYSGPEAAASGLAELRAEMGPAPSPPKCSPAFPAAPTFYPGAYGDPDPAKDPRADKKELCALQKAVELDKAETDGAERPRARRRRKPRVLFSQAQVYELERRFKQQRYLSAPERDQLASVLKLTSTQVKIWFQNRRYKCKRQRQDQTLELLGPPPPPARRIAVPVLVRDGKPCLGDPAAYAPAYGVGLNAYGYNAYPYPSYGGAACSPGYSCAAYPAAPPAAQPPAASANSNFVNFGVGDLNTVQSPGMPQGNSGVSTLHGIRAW
# Experimental: as §1, §2, §3, §4
# [3] = molecular target: T3, GATA4–NKX2-5 transcriptional synergy (Mus musculus, UniProt P42582+Q08369); assay: GATA4–NKX2-5 transcriptional synergy luciferase reporter assay (3xNKE reporter, COS-1 cells)
# T3 construct: expressed in transfected cells; host or cells: COS-1
# T3 sequence (Q08369 whole entry): as the sequence (Q08369 whole entry) above
# T3 sequence (P42582 whole entry): as the sequence (P42582 whole entry) above
# [4] = COS-1, compound 3 µM, luciferase reporter activity, spread in separate STDEV column
# [5] = COS-1, compound 10 µM, luciferase reporter activity, spread in separate STDEV column
# [6] = COS-1, 3 µM, luciferase reporter activity, % of control
# [7] = COS-1, 10 µM, luciferase reporter activity, % of control
# [8] = COS-1, GATA4 luciferase reporter assay, compound at 10 µM
# [9] = COS-1, NKX2-5 luciferase reporter assay, compound at 3 µM
# [10] = COS-1, NKX2-5 luciferase reporter assay, compound at 10 µM
# [11] = COS-1, GATA4-NKX2-5 transcriptional synergy luciferase reporter assay, compound at 3 µM
# [12] = COS-1, GATA4-NKX2-5 transcriptional synergy luciferase reporter assay, compound at 10 µM
# [13] = 3 µM compound, GATA4 luciferase reporter, COS-1 cells
# [14] = 3 µM compound, NKX2-5 luciferase reporter, COS-1 cells
# [15] = 3 µM compound, GATA4–NKX2-5 transcriptional synergy reporter, COS-1 cells
# [16] = 10 µM compound, GATA4 luciferase reporter, COS-1 cells
# [17] = 10 µM compound, NKX2-5 luciferase reporter, COS-1 cells
# [18] = 10 µM compound, GATA4–NKX2-5 transcriptional synergy reporter, COS-1 cells
structure (smiles),measurement,setting,value
CCN(CC)c1ccc(NC(=O)c2c(-c3ccc(C)s3)noc2C)cc1 [Compound 39p],activity at 3 µM,[1]; [4],85.9%
same,activity at 3 µM,[2]; [4],83.8%
same,activity at 10 µM,[3]; [5],102%
CCN(CC)c1ccc(NC(=O)c2c(-c3cc(C)on3)noc2C)cc1 [Compound 39o],activity at 3 µM,[1]; [4],89.2%
same,activity at 10 µM,[1]; [5],101%
same,activity at 3 µM,[2]; [4],101%
same,activity at 3 µM,[3]; [4],97.1%
same,activity at 10 µM,[3]; [5],102%
C#CC[N+](CC)(CC)c1ccc(NC(=O)c2c(-c3ccccc3)noc2C)cc1 [Compound 77],activity at 3 µM,[1]; [6],101%
same,activity at 10 µM,[1]; [7],95.3%
same,activity at 3 µM,[2]; [6],97.9%
same,activity at 10 µM,[2]; [7],117%
same,activity at 3 µM,[3]; [6],84%
same,activity at 10 µM,[3]; [7],101%
CN(C)c1ccc(CNc2cc(-c3ccccc3)nn2-c2ccccc2)cc1 [SI94],activity at 3 µM,[1]; [4],96.8%
same,activity at 10 µM,[1]; [5],85%
same,activity at 3 µM,[2]; [4],95.3%
same,activity at 10 µM,[2]; [5],79%
same,activity at 3 µM,[3]; [4],69%
same,activity at 10 µM,[3]; [5],72.5%
Cc1onc(-c2ccccc2)c1C(=O)Nc1ccc(-c2ccccc2)cc1 [Compound 4f],activity at 3 µM,[1]; [6],102%
same,activity at 10 µM,[1]; [7],114%
same,activity at 3 µM,[2]; [6],91%
same,activity at 3 µM,[3]; [6],72.7%
same,activity at 10 µM,[3]; [7],112%
COc1cc(C(=O)Nc2cc(-c3ccncc3)n[nH]2)ccc1C [SI123],activity at 3 µM,"[1]; COS-1, GATA4 luciferase reporter assay, compound at 3 µM",105%
same,activity at 10 µM,[1]; [8],80.9%
same,activity at 3 µM,[2]; [9],106%
same,activity at 10 µM,[2]; [10],90.4%
same,activity at 3 µM,[3]; [11],93.2%
same,activity at 10 µM,[3]; [12],72.3%
COc1ccc(-c2cc(NCc3ccc(N(C)C)cc3)n[nH]2)cc1 [SI92],activity at 3 µM,[1]; [4],74.4%
same,activity at 10 µM,[1]; [5],72.4%
same,activity at 3 µM,[2]; [4],84%
same,activity at 10 µM,[2]; [5],78.3%
same,activity at 3 µM,[3]; [4],76.3%
same,activity at 10 µM,[3]; [5],85.4%
Cc1onc(-c2ccccc2)c1COCc1ccc2ccccc2c1 [SI48],activity at 3 µM,[1]; [6],96.5%
same,activity at 10 µM,[1]; [7],110%
same,activity at 3 µM,[2]; [6],103%
same,activity at 10 µM,[2]; [7],95.1%
same,activity at 3 µM,[3]; [6],104%
same,activity at 10 µM,[3]; [7],90.6%
"CCC(=O)c1ccc(OCc2c(-c3ccccc3)noc2C)cc1 [Compound 34a, 1-[4-[(5-Methyl-3-phenylisoxazol-4-yl)methoxy]phenyl]propan-1-one]",activity at 3 µM,[1]; [6],106%
same,activity at 3 µM,[2]; [6],111%
same,activity at 3 µM,[3]; [6],90.9%
"Cc1onc(-c2ccccc2)c1COc1ccc(C(=O)OCCCC#N)cc1 [Compound 35b, 3-Cyanopropyl 4-[(5-Methyl-3-phenylisoxazol-4-yl)methoxy]benzoate]",activity at 3 µM,[1]; [13],73.9%
same,activity at 3 µM,[2]; [14],82.5%
same,activity at 3 µM,[3]; [15],85.5%
Cc1onc(-c2ccccc2)c1C(=O)Nc1ccc(C(=O)OCCCCC#N)cc1 [Compound 10c],activity at 3 µM,[1]; [4],109%
same,activity at 10 µM,[1]; [5],102%
same,activity at 3 µM,[2]; [4],102%
same,activity at 10 µM,[2]; [5],147%
same,activity at 3 µM,[3]; [4],101%
CCN(CC)c1ccc(-n2c(=O)c3c(C)onc3c3ccccc32)cc1 [Compound 78],activity at 3 µM,[1]; [13],101%
same,activity at 10 µM,[1]; [16],113%
same,activity at 3 µM,[2]; [14],105%
same,activity at 10 µM,[2]; [17],112%
same,effect on GATA4–NKX2-5 transcriptional synergy (in words),[3],no effect
same,activity at 3 µM,[3]; [15],84.1%
same,activity at 10 µM,[3]; [18],100%
CCN(CC)c1ccc(NC(=O)c2cc(C)oc2-c2cc(C)on2)cc1 [Compound 47h],activity at 3 µM,[1]; [4],134%
same,activity at 10 µM,[1]; [5],143%
same,activity at 3 µM,[2]; [4],114%
same,activity at 10 µM,[2]; [5],106%
same,activity at 3 µM,[3]; [4],118%
same,activity at 10 µM,[3]; [5],104%
CCN(CC)c1ccc(NC(=O)c2cc(C)sc2-c2cc(C)on2)cc1 [Compound 47l],activity at 3 µM,[1]; [4],119%
same,effect on NKX2-5 transcriptional activity (in words),[2],did not affect
same,activity at 3 µM,[3]; [4],105%
Cc1onc(-c2ccccc2)c1C(=O)Nc1ccc(C(=O)OCCCC#N)cc1 [Compound 10b],activity at 3 µM,[1]; [4],103%
same,activity at 10 µM,[1]; [5],114%
same,activity at 3 µM,[2]; [4],105%
same,activity at 3 µM,[3]; [4],93%
Cc1onc(-c2ccccc2)c1N=Cc1ccc(N(C)C)cc1 [SI108],activity at 3 µM,[1]; [6],109%
same,activity at 10 µM,[1]; [7],97.6%
same,activity at 3 µM,[2]; [6],99.3%
same,activity at 10 µM,[2]; [7],103%
same,activity at 3 µM,[3]; [6],69.3%
same,activity at 10 µM,[3]; [7],109%
Cc1onc(-c2ccccc2)c1C(=O)Nc1ccc(C(=O)OCCC#N)cc1 [Compound 76],activity at 3 µM,[1]; [4],97.1%
same,activity at 10 µM,[1]; [5],73.4%
same,activity at 3 µM,[2]; [4],132%
same,activity at 10 µM,[2]; [5],126%
same,activity at 3 µM,[3]; [4],98.7%
same,activity at 10 µM,[3]; [5],104%
"Cc1onc(-c2ccccc2)c1C(=O)Nc1nc(C(C)(C)C)cs1 [Compound 4k, N-[4-(tert-Butyl)thiazol-2-yl]-5-methyl-3-phenylisoxazole-4-carboxamide]",activity at 3 µM,[1]; [4],109%
same,activity at 10 µM,[1]; [5],114%
same,activity at 3 µM,[2]; [4],97.7%
same,activity at 3 µM,[3]; [4],117%
same,activity at 10 µM,[3]; [5],115%
CCN(c1ccc(NC(=O)c2c(C)noc2-c2cc(C)on2)cc1)C(C)C [Compound 74],activity at 3 µM,[1]; [13],103%
same,activity at 10 µM,[1]; [16],125%
same,activity at 3 µM,[2]; [14],85.2%
same,activity at 10 µM,[2]; [17],88.8%
same,activity at 10 µM,[3]; [18],96.6%
CC(C)c1ccc(NC(=O)c2noc3c2CCc2sccc2-3)cc1 [Compound 66],activity at 10 µM,[1]; [8],124%
same,activity at 3 µM,[2]; [9],122%
same,activity at 10 µM,[2]; [10],106%
same,activity at 3 µM,[3]; [11],132%
same,activity at 10 µM,[3]; [12],128%
CN(C)c1ccc(/N=C/c2c[nH]nc2-c2ccc(F)cc2)cc1 [Compound 75],activity at 3 µM,[1]; [6],107%
same,activity at 10 µM,[1]; [7],122%
same,activity at 3 µM,[2]; [6],108%
same,activity at 10 µM,[2]; [7],145%
same,activity at 3 µM,[3]; [6],110%
same,activity at 10 µM,[3]; [7],100%
